Consider 22 molecules from PubChem BioAssay AID330 (DTP/NCI, 2004).

The test concerns P388 leukemia ip, CD2F1 mice, survival T/C. As to the kind of experiment: NCI In Vivo Anticancer Drug Screen. Data for tumor model P388 Leukemia (intraperitoneal) in CD2F1 (CDF1) mice. To be noted: endpoint: median survival time, higher = longer survival. Put shortly:
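Mice carrying the transplanted tumor received test compound or vehicle. Survival was recorded in each group, and the value is the treated-group measurement divided by that of the vehicle-treated control group.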

[1] abbreviates: dose: 12.5 mg/kg/injection, schedule: Q01DX009 (ip), vehicle: saline with Tween-80.
Setting [2] is: dose: 25.0 mg/kg/injection, schedule: Q01DX009 (ip), vehicle: saline with Tween-80.
[3] abbreviates: dose: 50.0 mg/kg/injection, schedule: Q01DX009 (ip), vehicle: saline with Tween-80.
[4] abbreviates: dose: 50.0 mg/kg/injection, schedule: Q01DX005 (ip), vehicle: saline with Tween-80.
Setting [5] is: dose: 100.0 mg/kg/injection, schedule: Q01DX005 (ip), vehicle: saline with Tween-80.
The mark [6] stands for this setting: dose: 200.0 mg/kg/injection, schedule: Q01DX005 (ip), vehicle: saline with Tween-80.
Where [7] appears, read: dose: 100.0 mg/kg/injection, schedule: Q04DX003 (ip), vehicle: Klucel (hydroxypropylcellulose) (HPC).
[8] abbreviates: dose: 200.0 mg/kg/injection, schedule: Q04DX003 (ip), vehicle: Klucel (hydroxypropylcellulose) (HPC).
Where [9] appears, read: dose: 100.0 mg/kg/injection, schedule: Q01DX009 (ip), vehicle: saline with Tween-80.
Setting [10] is: dose: 100.0 mg/kg/injection, schedule: Q01DX009 (ip), vehicle: saline.
Setting [11] is: dose: 100.0 mg/kg/injection, schedule: Q04DX003 (ip), vehicle: saline.
Setting [12] is: dose: 200.0 mg/kg/injection, schedule: Q01DX009 (ip), vehicle: saline.
[13] abbreviates: dose: 50.0 mg/kg/injection, schedule: Q01DX009 (ip), vehicle: saline.

Structures are written as SMILES. “And” between values parts separate entries of the source, which are not always exact repeats. Equal entries are not always repeated. Inconclusive results and toxic doses are left out.

`C=Cc1cc[n+](CC(=O)c2ccccc2)cc1`: the T/C was 90 % of control (dose: 3.12 mg/kg/injection, schedule: Q01DX009 (ip), vehicle: saline); 90 % of control (dose: 6.25 mg/kg/injection, schedule: Q01DX009 (ip), vehicle: saline); 103 % of control and 90 % of control (dose: 12.5 mg/kg/injection, schedule: Q01DX009 (ip), vehicle: saline).
As to `c1ccc2c(c1)nnn1c3ncccc3nc21`, the T/C was 108 % of control under setting [1], 105 % of control under setting [2] and 105 % of control under setting [3].
Consider `O=C(Nc1ccc(Sc2ccc(N=Nc3c(O)c(S(=O)(=O)O)cc4cc(S(=O)(=O)O)ccc34)cc2)cc1)c1ccc(N=Nc2ccc3c(S(=O)(=O)O)cccc3c2O)cc1`, for which the T/C under setting [4] was 101 % of control, the T/C under setting [5] is 102 % of control and the T/C under setting [6] is 95 % of control.
Turning to `COc1ccc(CCNc2cc3ncn(C)c(=O)c3cc2[N+](=O)[O-])cc1OC`, the T/C is 101 % of control under setting [7]; 100 % of control under setting [8]; 86 % of control (dose: 400.0 mg/kg/injection, schedule: Q04DX003 (ip), vehicle: Klucel (hydroxypropylcellulose) (HPC)).
Consider `O=CN(O)CC(=O)O`, for which the T/C under setting [3] was 95 % of control; the T/C (dose: 50.0 mg/kg/injection, schedule: Q04DX003 (ip), vehicle: saline sonified) was 104 % of control; the T/C under setting [9] is 104 % of control; the T/C under setting [10] was 100 % of control; the T/C (dose: 100.0 mg/kg/injection, schedule: Q04DX003 (ip), vehicle: saline sonified) was 100 % of control; the T/C under setting [11] was 100 % of control. The T/C runs as follows: (dose: 200.0 mg/kg/injection, schedule: Q01DX009 (ip), vehicle: saline with Tween-80) 95 % of control; under setting [12], 109 % of control; (dose: 200.0 mg/kg/injection, schedule: Q04DX003 (ip), vehicle: saline sonified) 100 % of control; (dose: 200.0 mg/kg/injection, schedule: Q04DX003 (ip), vehicle: saline) 108 % of control; (dose: 400.0 mg/kg/injection, schedule: Q01DX009 (ip), vehicle: saline with Tween-80) 100 % of control; (dose: 400.0 mg/kg/injection, schedule: Q01DX009 (ip), vehicle: saline) 100 % of control. The T/C reads like this: (dose: 400.0 mg/kg/injection, schedule: Q04DX003 (ip), vehicle: saline sonified) 100 % of control; (dose: 400.0 mg/kg/injection, schedule: Q04DX003 (ip), vehicle: saline) 91 % of control.
Turning to `CN1NC(c2ccccc2)=NN=C1c1ccccc1`, the T/C runs as follows: (dose: 60.0 mg/kg/injection, schedule: Q01DX005 (ip), vehicle: saline with Tween-80) 104 % of control; (dose: 120.0 mg/kg/injection, schedule: Q01DX005 (ip), vehicle: saline with Tween-80) 102 % of control; (dose: 240.0 mg/kg/injection, schedule: Q01DX005 (ip), vehicle: saline with Tween-80) 105 % of control.
With `CC(=O)n1c2ccccc2c2c(C)c3cnccc3c(C)c21`, the T/C (dose: 12.5 mg/kg/injection, schedule: Q04DX002 (ip), vehicle: saline with Tween-80) was 114 % of control; the T/C (dose: 25.0 mg/kg/injection, schedule: Q04DX002 (ip), vehicle: saline with Tween-80) was 124 % of control; the T/C (dose: 50.0 mg/kg/injection, schedule: Q04DX002 (ip), vehicle: saline with Tween-80) was 152 % of control; the T/C (dose: 100.0 mg/kg/injection, schedule: Q04DX002 (ip), vehicle: saline with Tween-80) was 171 % of control; the T/C (dose: 200.0 mg/kg/injection, schedule: Q04DX002 (ip), vehicle: saline with Tween-80) is 196 % of control.
Turning to `CC1(C)C2=CC3(C)N(CN2c2ccccc21)c1ccccc1C3(C)C` (centres undefined), the T/C was 92 % of control (dose: 60.0 mg/kg/injection, schedule: Q01DX005 (ip), vehicle: Klucel (hydroxypropylcellulose) (HPC)); 95 % of control (dose: 120.0 mg/kg/injection, schedule: Q01DX005 (ip), vehicle: Klucel (hydroxypropylcellulose) (HPC)); 95 % of control (dose: 240.0 mg/kg/injection, schedule: Q01DX005 (ip), vehicle: Klucel (hydroxypropylcellulose) (HPC)).
On to `COC(=O)C12C=CC(C(=O)OC)(CC1)n1c(=O)n(-c3ccccc3)c(=O)n12`, for which the T/C by setting is: under setting [4], 107 % of control; under setting [5], 100 % of control; under setting [6], 100 % of control.
For the molecule `CCCCCCCCCCCCCCCCCc1ccccc1O`, the T/C (dose: 7.5 mg/kg/injection, schedule: Q01DX009 (ip), vehicle: saline with Tween-80) was 91 % of control; the T/C (dose: 15.0 mg/kg/injection, schedule: Q01DX009 (ip), vehicle: saline with Tween-80) is 94 % of control; the T/C (dose: 30.0 mg/kg/injection, schedule: Q01DX009 (ip), vehicle: saline with Tween-80) was 116 % of control.
Regarding `O=C(Oc1cc(Cl)ccc1Cl)c1ccccc1`, the T/C was 109 % of control and 96 % of control under setting [1]; 100 % of control and 98 % of control under setting [2]; 100 % of control and 102 % of control under setting [3]; 102 % of control and 91 % of control under setting [9].
As for `CN1CCCC(O)(C(=O)c2ccccc2)C1` (centres undefined), the T/C under setting [13] was 108 % of control; the T/C under setting [10] was 90 % of control; the T/C under setting [7] was 102 % of control; the T/C under setting [12] was 90 % of control; the T/C under setting [8] was 104 % of control.
With `CCOC(=O)N1c2ccccc2C(c2ccccc2)=NC1(C#N)CC` (centres undefined), the T/C by setting is: under setting [4], 96 % of control; under setting [5], 96 % of control; under setting [6], 97 % of control.
On to `COc1cc2c(cc1OC(C)=O)C=CCCC2=O`, for which the T/C runs as follows: (dose: 100.0 mg/kg/injection, schedule: Q04DX003 (ip), vehicle: saline with Tween-80) 105 % of control; (dose: 200.0 mg/kg/injection, schedule: Q04DX003 (ip), vehicle: saline with Tween-80) 100 % of control; (dose: 400.0 mg/kg/injection, schedule: Q04DX003 (ip), vehicle: saline with Tween-80) 105 % of control.
On to `COc1cc(CC2C(CO)OC(=O)C2C(O)c2ccc3c(c2)OCO3)cc(OC)c1OC` (centres undefined), for which the T/C is 104 % of control (dose: 5.0 mg/kg/injection, schedule: Q04DX002 (ip), vehicle: saline with Tween-80); 104 % of control (dose: 10.0 mg/kg/injection, schedule: Q04DX002 (ip), vehicle: saline with Tween-80); 102 % of control (dose: 20.0 mg/kg/injection, schedule: Q04DX002 (ip), vehicle: saline with Tween-80).
For `CN(C)CCC[n+]1cc2c3ccccc3c(N)cc2c2ccccc21`, the T/C was 104 % of control (dose: 3.13 mg/kg/injection, schedule: Q04DX003 (ip), vehicle: water); 121 % of control (dose: 6.25 mg/kg/injection, schedule: Q04DX003 (ip), vehicle: water); 109 % of control (dose: 12.5 mg/kg/injection, schedule: Q04DX003 (ip), vehicle: water); 109 % of control (dose: 25.0 mg/kg/injection, schedule: Q04DX003 (ip), vehicle: water).
Consider `N#C/C(=C/c1cccs1)c1ccc(Cl)cc1`, for which the T/C was 109 % of control under setting [7] and 99 % of control under setting [8].
Consider `CC(C)NCC(O)COc1c2ccccc2nc2ccccc12` (centres undefined), for which the T/C by setting is: under setting [4], 101 % of control; under setting [5], 95 % of control; under setting [6], 102 % of control.
As to `CC(C)(C)OC1CCC2=CC(=O)CCC21C` (centres undefined), the T/C (dose: 100.0 mg/kg/injection, schedule: Q04DX002 (ip), vehicle: other) was 119 % of control.
On to `O=C(CCCCl)CC(O)(C(F)(F)Cl)C(F)(F)Cl`, for which the T/C (dose: 25.0 mg/kg/injection, schedule: Q04DX003 (ip), vehicle: saline) is 100 % of control; the T/C (dose: 50.0 mg/kg/injection, schedule: Q04DX003 (ip), vehicle: saline) was 100 % of control; the T/C under setting [11] was 95 % of control.
Consider `O=S(=O)(C#Cc1ccccc1)C(F)(F)F`, for which the T/C runs as follows: (dose: 100.0 mg/kg/injection, schedule: Q01DX001 (ip), vehicle: saline) 105 % of control; (dose: 200.0 mg/kg/injection, schedule: Q01DX001 (ip), vehicle: saline) 105 % of control; (dose: 400.0 mg/kg/injection, schedule: Q01DX001 (ip), vehicle: saline) 106 % of control.
For `Cc1ccc(NC(=O)N2CCOCC2)cc1NC(=O)N1CCOCC1`, the T/C reads like this: under setting [13], 100 % of control; under setting [10], 91 % of control.
